Data published in patent US12703693B2, “Crystalline forms of N-{3-[(1S)-1-{[6-(3,4-dimethoxyphenyl)pyrazin-2-yl]amino}ethyl]phenyl}-5-methylpyridine-3-carboxamide and related products and methods” (GB002, INC., priority 2021, dated 2026).
≈ marks a conversion by molar mass, not a printed value. Marks after values point to notes of the source that are not given here. Values belong to the molecule of their own block, whether it stands above or below them.

Legend:
[1] = Solubility in 25 mM phosphate buffer pH 7.4
Description: (§1) Phosphate Buffer contained NaH2PO4·H2O (0.345 g), sodium hydroxide aqueous solution (0.2M, 10.001 mL), sodium chloride (0.576 g) and water (qs ad 100.0 mL); • Ethanol/Water (30/70) contained Ethanol (30.0 g) and Water (70.0 g); • Ethanol/Water (40/60) contained Ethanol (40.0 g) and Water (60.0 g); • Ethanol/Water (50/50) contained Ethanol (50.0 g) and Water (50.0 g); and • Ethanol/Water (45/55) contained Ethanol (4.50 g) and Water (5.51 g).

[2] = Solubility in ethanol/water mixtures; details: for solubility / solubility at 4 h / solubility at 24 h: 22 °C, aqueous with cosolvent or surfactant or cyclodextrin, thermodynamic from solid
Description: as §1

[3] = Sample stress, 40° C. and 75% relative humidity, XRPD; assay type: physicochemical; details: open vial, 6 days
Description: Two samples, one containing pure crystalline Form A of Compound 1 and a second containing a mixture of crystalline Forms A and B of Compound 1 were placed in an open vial at 40° C. and 75% relative humidity for 6 days and then analyzed by XRPD. The results are presented in Table 11; no changes by XRPD were observed.

[4] = Solubility in ethyl acetate and ethyl acetate+2% water (Crystal16 parallel crystallizer); assay type: physicochemical
Description: The solubility of crystalline Forms A and B of Compound 1 in ethyl acetate was determined using a Crystal16® parallel crystallizer. Two heating rates were used, 1° C./min and 0.5° C./min. The suspensions were heated to 78° C. and cooled to 10° C. at 0.2° C./min and maintained for 2 h at 10° C. […] The suspensions were heated to 78° C. at 1° C./min, cooled to 10° C. at 0.2° C./min and maintained for 2 h at 10° C. FIG. 15 compares the resulting solubility curve with the pure ethyl acetate.

[5] = Particle size distribution (PSD) of micronized / spray dried material; assay type: physicochemical; details: wet milled aqueous suspension of Compound 1 Form A; cycles/pressure: 1A 30/60 bar, 2A 45/50 bar, 3A 30/50 bar
From the text: Crystalline Compound 1 Form A was fed into a grinding chamber tangentially by vacuum created by the venturi system using pressurized nitrogen (venturi pressure, Pvent, above grind pressure, Pgrind). Compressed nitrogen was also used for the jet nozzles in the walls of the chamber. The feed flow rate was set and controlled automatically (by a gravimetric feeder) or manually. Once inside the milling chamber particles were accelerated by a series of perimeter jets, in a spiral movement. The compressed fluid issuing from the nozzles expands from Pgrind and imparts very high rotational speeds in the chamber. The micronizing effect occurs when the slower incoming particles and the faster particles in the spiral path collide. While centrifugal force retains the larger particles at the periphery of the milling chamber, the smaller particles exit with the exhaust gas from the center of the chamber. Five 20 g trials were performed in a 1.5″ jet mill, under varying feed rates (Ffeed,JM,) and pressures; the optimal conditions were used for a sixth larger scale 50 g trial.
Aqueous suspensions of crystalline Compound 1 Form A in water (5% w/w or 10% w/w) were processed via microfluidization with a HPH18 (M-110EH-30 Microfluidics Pilot) wet milling apparatus equipped with an auxiliary processing module (200 μm) and an interaction chamber (Z-shape, 100 μm). The unit was initiated at a given pressure for the first five cycles to perform a pre-milling of the suspension, using only the auxiliary processing module (200 μm). The interaction chamber (100 μm) was then introduced and the suspension processed at a defined pressure. The temperature was controlled, using a reactor jacket, and recorded. To address clogging of the micronization chambers (observed after ~25 cycles), the pressure was increased from 25 to 60 bar.
The material isolated from the first run 1A, was dived into three (1BI, 1BII and 1BIII); runs 2A and 3A were spray dried to produce samples 2B and 3B, respectively. […] Runs 2B and 3B were additionally characterized for specific surface area (SSA). See Table 27 (runs 1BI, 1BII and 1BIII) and Table 28 (runs 2B and 3B) for conditions and product characterization. […]
Two 250 g batches of crystalline Compound 1 Form A were each suspended in water (5 L) and wet polished in a wet milling HPH18 (M-110EH-30 Microfluidics Pilot) apparatus, equipped with an auxiliary processing module (200 μm) and an interaction chamber (Z-shape, 100 μm). The unit was initiated at 50 bar for the first five cycles to perform a pre-milling of the suspension, using only the auxiliary processing module (200 μm). The interaction chamber (100 μm) was then introduced and the suspension processed at 50 bar (increased to 60 or 70 bar if the system clogged). The temperature was maintained at 18-28° C. using a reactor jacket. The Reactor agitation speed was 280 RPM (batch 1) and 390 RPM (batch 2). The first batch was micronized for 25 cycles and particle size distribution analyzed after 5, 15 and 20 cycles; the second batch was micronized for […] and particle size distribution analyzed after 15, 20, 25 and 35 cycles.
Both batches were then spray dried (separately) using a Büchi spray dryer, using an open loop system. The unit was equipped with a two-fluid nozzle: cap and orifice diameters of 1.5 and 0.7 mm, respectively operated with nitrogen. The aspirator, blowing nitrogen, was set at 100% capacity (~40 kg/h). The suspension feed flow was set to 8 ml/min, high and the drying outlet temperature to 75±1° C. […] Total yield (both batches combined) was 267 g (53%).
Two 250 g batches (250 g and 238 g; 488 g total) of crystalline Compound 1 Form A coated with ~2% L-leucine were each suspended in water (5 L) and wet polished in a wet milling HPH18 (M-110EH-30 Microfluidics Pilot) apparatus, under the same process as described in the previous example. The first batch was micronized for 25 cycles and the second for 30 cycles. […]

[6] = EtOH/H2O (w:w) 50:50, top layer after centrifugation, 22° C.

Structure (SMILES): COc1ccc(-c2cncc(N[C@@H](C)c3cccc(NC(=O)c4cncc(C)c4)c3)n2)cc1OC [Crystalline]
- solubility ([1]; 25 mM phosphate buffer pH 7.4, equil time 4 hrs): 3.16 µg/mL (≈ 0.00673 mM)
- solubility ([1]; 25 mM phosphate buffer pH 7.4, equil time 24 hrs): 3.05 µg/mL (≈ 0.0065 mM)
- Solubility 4 Hours ([2]; EtOH/H2O (w:w) 40:60, 22° C.): 18900 µg/mL (≈ 40.3 mM)
- Solubility 24 Hours ([2]; EtOH/H2O (w:w) 40:60, 22° C.): 18.3 mg/mL (≈ 39 mM)
- Solubility Average ([2]; EtOH/H2O (w:w) 40:60, 22° C.): 18600 µg/mL (≈ 39.6 mM)
- Solubility 4 Hours ([2]; EtOH/H2O (w:w) 45:55, 22° C.): 53300 µg/mL (≈ 114 mM)
- Solubility 24 Hours ([2]; EtOH/H2O (w:w) 45:55, 22° C.): 43.3 mg/mL (≈ 92.2 mM)
- Solubility Average ([2]; EtOH/H2O (w:w) 45:55, 22° C.): 48300 µg/mL (≈ 103 mM)
- Solubility 4 Hours ([2]; EtOH/H2O (w:w) 50:50, bottom layer after centrifugation, 22° C.): 222000 µg/mL (≈ 473 mM)
- Solubility 24 Hours ([2]; EtOH/H2O (w:w) 50:50, bottom layer after centrifugation, 22° C., result outside calibration curve): 362* mg/mL
- Solubility 4 Hours [2, 6]: 125000 µg/mL (≈ 266 mM)
- Solubility 24 Hours [2, 6]: 177 mg/mL (≈ 377 mM)

Structure (SMILES): COc1ccc(-c2cncc(N[C@@H](C)c3cccc(NC(=O)c4cncc(C)c4)c3)n2)cc1OC [Form A + form B (minor)]
- XRPD observation after stress conditions [3]: No change - Form A +

Structure (SMILES): COc1ccc(-c2cncc(N[C@@H](C)c3cccc(NC(=O)c4cncc(C)c4)c3)n2)cc1OC [Form B, N-{3-[(1S)-1-{[6-(3,4-dimethoxyphenyl)pyrazin-2-yl]amino}ethyl]phenyl}-5-methylpyridine-3-carboxamide]
- solubility compared with the other crystalline form ([4]; ethyl acetate and ethyl acetate+2% water (both systems)): slightly less soluble
- solubility in ethyl acetate+2% water compared to pure ethyl acetate ([4]; presence of water (2%)): significantly more soluble

Structure (SMILES): CC(C)C[C@H](N)C(=O)O [L-Leucine]
- solubility ([2]; ethanol/water 30:70 (w:w)): 7360 µg/mL (≈ 56.1 mM)
- solubility at 4 h ([2]; ethanol/water 30:70 (w:w)): 7470 µg/mL (≈ 56.9 mM)
- solubility at 24 h ([2]; ethanol/water 30:70 (w:w)): 7260 µg/mL (≈ 55.3 mM)
- solubility ([2]; ethanol/water 40:60 (w:w)): 5880 µg/mL (≈ 44.8 mM)
- solubility at 4 h ([2]; ethanol/water 40:60 (w:w)): 6040 µg/mL (≈ 46 mM)
- solubility at 24 h ([2]; ethanol/water 40:60 (w:w)): 5710 µg/mL (≈ 43.5 mM)
- solubility ([2]; ethanol/water 50:50 (w:w)): 5070 µg/mL (≈ 38.7 mM)
- solubility at 4 h ([2]; ethanol/water 50:50 (w:w)): 4720 µg/mL (≈ 36 mM)
- solubility at 24 h ([2]; ethanol/water 50:50 (w:w)): 5410 µg/mL (≈ 41.2 mM)

Continued, values first:

- Dv10 [5]: 1.7 μm
- Dv50 [5]: 3.2 μm
- Dv90 [5]: 6 μm
Structure (SMILES): COc1ccc(-c2cncc(N[C@@H](C)c3cccc(NC(=O)c4cncc(C)c4)c3)n2)cc1OC [Run 1A]

- Dv10 [5]: 1.3 μm
- Dv50 [5]: 2.7 μm
- Dv90 [5]: 4.8 μm
Structure (SMILES): COc1ccc(-c2cncc(N[C@@H](C)c3cccc(NC(=O)c4cncc(C)c4)c3)n2)cc1OC [Run 2A]

- Dv10 [5]: 0.1 μm
- Dv50 [5]: 1.0 μm
- Dv90 [5]: 3.5 μm
Structure (SMILES): COc1ccc(-c2cncc(N[C@@H](C)c3cccc(NC(=O)c4cncc(C)c4)c3)n2)cc1OC [Run 3A]
